Assay results reported in US20080255143A1, “Inhibitors of Akt Activity” (SMITHKLINE BEECHAM CORPORATION, priority 2003, published 2008).
Structures can show the parent of a compound that is named as a salt.

Assays:
Assay type in all cases: biochemical
Conditions in all cases: catalytic domain, 10 nM activated enzyme, 4 uM ATP, 8 uM peptide, 40 minutes at room temperature
[1] = molecular target: T1, delta-PH AKT2 (Homo sapiens, UniProt P31751); test: AKT enzyme assay (substrate phosphorylation, SPA), AKT2
T1 construct: His-tagged AKT2 (aa 138-481) and His-tagged AKT3 (aa 135-479) were isolated; His; made in house; host or cells: insect cells (only by 'in a similar fashion' to AKT1)
Protocol: (§1) His-tagged AKT2 (aa 138-481) and His-tagged AKT3 (aa 135-479) were isolated and purified in a similar fashion.
(§2) Compounds of the present invention were tested for AKT 1, 2, and 3 protein serine kinase inhibitory activity in substrate phosphorylation assays. This assay examines the ability of small molecule organic compounds to inhibit the serine phosphorylation of a peptide substrate. The substrate phosphorylation assays use the catalytic domains of AKT 1, 2, or 3. […] Substrate phosphorylation was detected by the following procedure:
(§3) Assays were performed in 384 well U-bottom white plates. […] The reaction was stopped by the addition of 50 ul SPA bead mix (Dulbecco's PBS without Mg^2+ and Ca^2+, 0.1% Triton X-100, 5 mM EDTA, 50 uM ATP, 2.5 mg/ml Streptavidin-coated SPA beads.) The plate was sealed, the beads were allowed to settle overnight, and then the plate was counted in a Packard Topcount Microplate Scintillation Counter (Packard Instrument Co., Meriden, Conn.).
(§4) The data for dose responses were plotted as % Control calculated with the data reduction formula 100*(U1-C2)/(C1-C2) versus concentration of compound where U is the unknown value, C1 is the average control value obtained for DMSO, and C2 is the average control value obtained for 0.1M EDTA. […]

[2] = molecular target: T2, delta-PH AKT1 (Homo sapiens, UniProt P31749); test: AKT enzyme assay (substrate phosphorylation, SPA), AKT1
T2 construct: Insect cells expressing His-tagged AKT1 (aa 136-480) were lysed; His; made in house; host or cells: insect cells
Protocol: Insect cells expressing His-tagged AKT1 (aa 136-480) were lysed in 25 mM HEPES, 100 mM NaCl, 20 mM imidazole; pH 7.5 using a polytron (5 mLs lysis buffer/g cells). Cell debris was removed by centrifuging at 28,000×g for 30 minutes. The supernatant was filtered through a […] filter then loaded onto a nickel-chelating column pre-equilibrated with lysis buffer. The column was washed with 5 column volumes (CV) of lysis buffer then with 5 CV of 20% buffer B, where buffer B is 25 mM HEPES, 100 mM NaCl, 300 mM imidazole; pH 7.5. His-tagged AKT1 (aa 136-480) was eluted with a 20-100% linear gradient of buffer B over 10 CV. His-tagged AKT1 (136-480) eluting fractions were pooled and diluted 3-fold with buffer C, where buffer C is 25 mM HEPES, pH 7.5. […]
Compounds of the present invention were tested for AKT 1, 2, and 3 protein serine kinase inhibitory activity in substrate phosphorylation assays. […] Substrate phosphorylation was detected by the following procedure:
as §3, with “Conn.). […]” for “Conn.).”

[3] = molecular target: T3, delta-PH AKT3 (Homo sapiens, UniProt Q9Y243); test: AKT enzyme assay (substrate phosphorylation, SPA), AKT3
T3 construct: His-tagged AKT2 (aa 138-481) and His-tagged AKT3 (aa 135-479) were isolated; His; made in house; host or cells: insect cells (only by 'in a similar fashion' to AKT1)
Protocol: as §1, §2, §3, §4

T1 sequence (P31751 138-481): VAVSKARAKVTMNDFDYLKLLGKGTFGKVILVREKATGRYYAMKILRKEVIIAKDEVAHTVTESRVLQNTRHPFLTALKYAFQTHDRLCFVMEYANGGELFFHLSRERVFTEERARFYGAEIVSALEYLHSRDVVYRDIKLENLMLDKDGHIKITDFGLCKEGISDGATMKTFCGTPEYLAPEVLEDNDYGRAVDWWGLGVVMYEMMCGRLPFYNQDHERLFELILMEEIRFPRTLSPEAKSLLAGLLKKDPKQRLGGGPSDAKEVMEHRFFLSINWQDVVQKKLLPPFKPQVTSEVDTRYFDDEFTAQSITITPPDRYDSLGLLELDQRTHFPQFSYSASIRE
T2 sequence (P31749 136-480): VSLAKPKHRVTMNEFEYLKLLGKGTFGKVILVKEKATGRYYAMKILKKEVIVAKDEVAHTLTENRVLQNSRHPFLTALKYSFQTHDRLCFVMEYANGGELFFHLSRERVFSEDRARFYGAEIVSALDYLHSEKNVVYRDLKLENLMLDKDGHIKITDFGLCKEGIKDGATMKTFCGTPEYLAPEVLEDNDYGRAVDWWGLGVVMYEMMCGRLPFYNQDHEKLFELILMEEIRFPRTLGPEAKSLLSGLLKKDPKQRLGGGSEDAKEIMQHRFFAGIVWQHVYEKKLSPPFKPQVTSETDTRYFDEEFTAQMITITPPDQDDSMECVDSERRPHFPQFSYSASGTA
T3 sequence (Q9Y243 135-479): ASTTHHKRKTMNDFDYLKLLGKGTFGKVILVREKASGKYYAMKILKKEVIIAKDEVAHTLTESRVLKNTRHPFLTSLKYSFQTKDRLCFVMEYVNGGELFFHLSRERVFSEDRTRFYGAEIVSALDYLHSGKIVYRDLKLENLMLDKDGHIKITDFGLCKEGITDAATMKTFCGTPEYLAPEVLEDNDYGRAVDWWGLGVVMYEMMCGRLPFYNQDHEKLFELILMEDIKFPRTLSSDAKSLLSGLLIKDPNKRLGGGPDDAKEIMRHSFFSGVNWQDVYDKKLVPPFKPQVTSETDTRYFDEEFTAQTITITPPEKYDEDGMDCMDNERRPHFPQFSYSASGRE

CCn1c(-c2nonc2N)nc2c(-c3cccc(Cl)c3)ncc(NCCCNC[C@H](O)CO)c21 [Example 236, (S)-3-[3-[2-(4-amino-furazan-3-yl)-4-(3-chloro-phenyl)-1-ethyl-1H-imidazo[4,5-c]pyridin-7-ylamino]-propylamino]-propane-1,2-diol trifluoroacetate]
IC50 [1]: 0.038 µM
IC50 [2]: 0.069 µM
IC50 [3]: 0.032 µM
